Source: patent US20240082125A1, “USE OF A SHORT CHAIN FATTY ACID AS ANTIDANDRUFF AGENT” (NANYANG TECHNOLOGICAL UNIVERSITY, priority 2020, published 2024)
Several values for one entry are separate records, joined by “and”; a condition that tells them apart may be missing. Equal entries are not always repeated.

How the values were obtained:
[1] = tested on: M. restricta ATCC MYA-4611; test: M. restricta growth assay, total cell numbers by SYTO9 fluorescence; format: cell-based, Malassezia restricta
Protocol: (§1) M. restricta ATCC MYA-4611, S. epidermidis ATCC 12228, and C. acnes ATCC 6919 were purchased from ATCC. M. restricta was routinely cultured in modified Dixon (MD) medium (pH 6), composed of 36 g of Malt extract (Sigma 70167), 20 g of Dessicated Oxbile (Sigma 70168), 6 g of Bacto™ Peptone (BD 211677), 1% (v/v) Tween 40 (Sigma P1504), 0.2% (v/v) Oleic Acid (Fluka 75096), and 0.2% (v/v) Glycerol (Promega H5433) in 1 liter of dH2O. C. acnes and S. epidermidis were cultured in modified brain heart infusion (MBHI) medium (pH 7), containing 37 g of BHI base (Accumedia 7116B), 0.4% (v/v) of Tween-40 (Sigma P1504), 0.2% (v/v) of Oleic acid (Fluka 75096), and 0.2% (v/v) of Glycerol (Promega H5433) in 1 liter of dH2O. M. restricta and S. epidermidis were routinely grown under aerobic conditions, shaken at 200 rpm, and C. acnes was grown under anaerobic conditions. All organisms were grown at 33° C. Wherever required, media was supplemented with: sodium acetate (CH3COOH, Sigma Ref. 32319), sodium propionate ([…], Sigma Ref. P1880), sodium butyrate (CH3(CH2)2COOH, Sigma Ref. 303410), valeric acid (CH3(CH2)3COOH, Fluka Ref. 75054). For valeric acid, the pH in modified cell media was neutralized with NaOH (Sodium hydroxide, Sigma 283060).
M. restricta cells from 1 ml of the culture were harvested by centrifugation at 10,000×g for 5 minutes at room temperature. Cells were washed once, pelleted, and re-suspended in 0.9% NaCl solution. Equal volumes of the above cell suspension and SYTO 9 working stock (3 ul SYTO 9 component of the Live/Dead BacLight bacterial viability kit, ThermoFisher Scientific, L7012, diluted in 1 ml of 0.9% NaCl solution) were mixed well, incubated in dark for 10 minutes, and fluorescent intensity unit was measured in a Tecan microplate reader with excitation/emission wavelengths of 485/530 nm. A standard for correlation of fluorescence units and concentration was prepared using a fluorimeter and hemocytometer under a light microscope. This standard curve was used to calculate the total cell numbers.
(§2) M. restricta cells stored as glycerol stocks (30% glycerol in MD medium) were revived by plating on MD agar plates and incubated for 2-3 days at 33° C. A pre-culture was made from the lawn of cells grown on the agar plate. Cells from % of the plate was scrapped off, homogenized after suspending in 70 ml of MD medium in a 250 ml baffled erlenmeyer flask and incubated for 24 hours at 33° C. at 200 rpm. For experiments, 10^7 cell/ml was inoculated in fresh MD medium with or without the short chain fatty acids. Growth was monitored by measuring the cell density with SYTO 9 for up to 24 hours or 96 hours. C. acnes and S. epidermidis were inoculated into MBHI medium at starting cell density of OD600 0.05 and 0.25, respectively. Bacterial growth was measured by plating the serially diluted cultures on Brain Heart Infusion agar plates at different time points and colonies were counted after 72 hours for C. acnes and 24 hours for S. epidermidis.
M. restricta ATCC MYA-4611, S. epidermidis ATCC 12228 and C. acnes ATCC 6919 were purchased from ATCC. M. restricta were routinely cultured in Modified Dixon (MD) medium (pH 6), composed of 36 g of Malt extract (Sigma 70167), 20 g of Dessicated Oxbile (Sigma 70168), 6 g of Bacto™ Peptone (BD 211677), 1% (v/v) Tween 40 (Sigma P1504), 0.2% (v/v) Oleic Acid (Fluka 75096), and 0.2% (v/v) Glycerol (Promega H5433) in 1 liter of dH2O. C. acnes and S. epidermidis were cultured in modified brain heart infusion (MBHI) medium (pH 7), containing 37 g of BHI base (Accumedia 7116B), 0.4% (v/v) of Tween-40 (Sigma P1504), 0.2% (v/v) of Oleic acid (Fluka 75096), and 0.2% (v/v) of Glycerol (Promega H5433) in 1 liter of dH2O. M. restricta and S. epidermidis were routinely grown under aerobic conditions, shaken at 200 rpm, and C. acnes was grown under anaerobic conditions. All organisms were grown at 33° C.

C. acnes ATCC 6919 [2] = test: C. acnes growth assay, colony forming units; format: cell-based, Cutibacterium acnes
Protocol: as §1, §2
(§3) Bacterial growth was quantified by plating the serially diluted cultures on Brain Heart Infusion agar plates at different time points and colonies were counted after 72 hours for C. acnes and 24 hours for Staphylococcus sp.
(§4) M. restricta ATCC MYA-4611, S. epidermidis ATCC 12228 and C. acnes ATCC 6919 were purchased from ATCC. M. restricta were routinely cultured in Modified Dixon (MD) medium (pH 6), composed of 36 g of Malt extract (Sigma 70167), 20 g of Dessicated Oxbile (Sigma 70168), 6 g of Bacto™ Peptone (BD 211677), 1% (v/v) Tween 40 (Sigma P1504), 0.2% (v/v) Oleic Acid (Fluka 75096), and 0.2% (v/v) Glycerol (Promega H5433) in 1 liter of dH2O. C. acnes and S. epidermidis were cultured in modified brain heart infusion (MBHI) medium (pH 7), containing 37 g of BHI base (Accumedia 7116B), 0.4% (v/v) of Tween-40 (Sigma P1504), 0.2% (v/v) of Oleic acid (Fluka 75096), and 0.2% (v/v) of Glycerol (Promega H5433) in 1 liter of dH2O. M. restricta and S. epidermidis were routinely grown under aerobic conditions, shaken at 200 rpm, and C. acnes was grown under anaerobic conditions. All organisms were grown at 33° C. Wherever required, media was supplemented with 50 mM of: sodium propionate ([…], Sigma Ref. P1880), sodium butyrate (CH3(CH2)2COOH, Sigma Ref. 303410), valeric acid (CH3(CH2)3COOH, Fluka Ref. 75054). For valeric acid, the pH in modified cell media was neutralized with NaOH (Sodium hydroxide, Sigma 283060).
(§5) M. restricta cells stored as glycerol stocks (30% glycerol in MD medium) were revived by plating on MD agar plates and incubated for 2-3 days at 33° C. A pre-culture was made from the lawn of cells grown on the agar plate.

[3] = tested on: S. epidermidis ATCC 12228; test: S. epidermidis growth assay, colony forming units; format: cell-based, Staphylococcus epidermidis
Protocol: as §1, §2, §3, §4, §5

C. acnes ATCC 6919 [4] = test: Co-culture assay: C. acnes growth with S. epidermidis biofilm in aerobic condition; format: cell-based, Cutibacterium acnes; conditions: monitored 24, 48 and 72 hours, FIG. 8
Protocol: S. epidermidis ATCC 12228, and C. acnes ATCC 6919 were purchased from ATCC. C. acnes and S. epidermidis were cultured in modified brain heart infusion (MBHI) medium (pH 7), containing 37 g of BHI base (Accumedia 7116B), 0.4% (v/v) of Tween-40 (Sigma P1504), 0.2% (v/v) of Oleic acid (Fluka 75096), and 0.2% (v/v) of Glycerol (Promega H5433) in 1 liter of dH2O. S. epidermidis was routinely grown under aerobic conditions, shaken at 200 rpm, and C. acnes was grown under anaerobic conditions. All organisms were grown at 33° C. Wherever required, media was supplemented with: sodium propionate ([…], Sigma Ref. P1880),
C. acnes and S. epidermidis were inoculated in MBHI media at starting cell density of OD600 0.05 and 0.25 respectively. Bacterial growth was measured by plating the serially diluted cultures on Brain Heart Infusion agar plates at different time points and colonies were counted after 72 hours for C. acnes and 24 hours for S. epidermidis.
For co-cultures, equal volumes of exponentially growing cells of the two species were mixed at cell density of 10^5 cells per ml in 24-well glass bottom plates. Growth of each species in co-cultures was quantified by plating the culture suspension on agar medium. […]

## CCC(=O)[O-].[Na+] [NaP, sodium propionate]
[1]; 30 mM, MD medium pH 6, FIG. 1
  growth of Malassezia restricta: completely inhibit
[1]; 50 mM, after 72 hours, SYTO9, starting density 1×10^7 cells/ml, replicates #1-#3
  M. restricta (log10 total cell counts): 6.95 log10 total cell counts and 6.79 log10 total cell counts and 6.82 log10 total cell counts
C. acnes ATCC 6919 [2]; 30 mM, MBHI medium pH 7, anaerobic, FIG. 2
  growth of C. acnes: do not affect
C. acnes ATCC 6919 [2]; 50 mM, after 72 hours, replicates #1-#3
  C. acnes (log10 CFUs/ml): 7.82 log10 CFUs/ml and 8.34 log10 CFUs/ml and 8.29 log10 CFUs/ml
[3]; 30 mM, MBHI medium pH 7, aerobic, FIG. 3
  growth of S. epidermidis: do not affect
[3]; 50 mM, after 24 hours, replicates #1-#3
  S. epidermidis (log10 CFUs/ml): 9.16 log10 CFUs/ml and 8.82 log10 CFUs/ml and 9.00 log10 CFUs/ml
C. acnes ATCC 6919 [4]
  C. acnes growth in co-culture with S. epidermidis: augmented
